15 compounds from patent EP1541559A1, “5-SUBSTITUTED ISOQUINOLINE DERIVATIVE” (Asahi Kasei Pharma Corporation, priority 2002, dated 2004) can be followed below.

SMILES strings stand for the structures. Counter-ions that a name gives are not always drawn. Like-named read-outs stand apart in the source and are kept apart here. Bounds are passed on as bounds.

Assay [1] has as its system ovalbumin-immunized guinea pigs. Nature of the assay: Respiratory tract constriction suppression action, ovalbumin-induced (Test Example 3). In kind it is in vivo, Hartley guinea pigs. Particulars: result in words; test medicament given into hind leg vein after induction with 0.3 mg/kg ovalbumin, measured for 15 minutes. As to the method:
Four-week old Hartley guinea pigs (male) were immunized by intraperitoneal administration of ovalbumin (Sigma, Grade V) in amounts of 1 mg for each animal on the day on which the experiment was started, 3 mg for each animal after 2 days, and 10 mg for each animal after 4 days. Twelve to fourteen days after the final immunization, the ovalbumin-immunized guinea pigs were anesthetized by intraperitoneal administration of about 40 mg/kg of pentobarbital (Somnopentyl), and the tracheas were taken out. Subsequently, a cannula (SP-110, Natsume) was inserted into each trachea, and one end of the cannula was connected to an artificial respirator (Model-b83, Harvard). The aeration conditions were set at 6 ml per kilogram and 60 times per 1 minute. Further, a cannula for medicament administration (JMS wing needle 23G 3/4) was inserted into a hind leg vein. Myoblock (Organon Technica) was administered in an amount of 0.5 mg/kg from the cannula inserted into the hind leg vein to stop the spontaneous breathing, and after 2 or 3 minutes, 0.3 mg/kg of ovalbumin was administered to induce constriction of respiratory tract. The increase of airway resistance value 2 minutes after the induction (measurement apparatuses: pressure transducer TR-603T, respiratory amplifier AR-601G, and recorder RTA-3100, Nihon Kohden Corp.) was confirmed to be above 80 cm H2O or higher, and then, a solution of a test medicament was administered from the cannula inserted into the hind leg vein, and the airway resistance value was continuously measured for 15 minutes after the administration to determine the effect.

For assay [2], the system named is myosin regulatory light chain. Nature of the assay: Action on amount of phosphorylated myosin regulatory light chain in the cells (Test Example 1). The following applies: neutrophils of healthy volunteers, reaction with test compound at 25°C for 5 minutes, read-out: Inhibition of myosin regulatory light chain phosphorylation (IC50: µM). In kind it is cell-based, human. As to the method: The neutrophils were washed with PBS(-) and resuspended in Hanks' Balanced Salt Solution (HBSS+, Gibco) to prepare a cell suspension (8 x 10^6/ml). The cell suspension was diluted to 5 x 10^6/ml, introduced into Eppendorf tubes in a volume of 0.4 ml each, then 0.1 ml each of solutions of a test compound at various concentrations were added to the suspension and allowed to react at 25°C for 5 minutes. After the reaction, 0.1 ml of trichloroacetic acid solution was added to each reaction, the reaction mixture was gently shaken and centrifuged at 12,000 rpm (4°C, 5 minutes), and the supernatant was removed. Subsequently, 3 μl of 1 M Tris solution was added to the residue, the mixture was further mixed with 50 μl of extraction buffer (8 M urea, 0.02% 2-mercaptoethanol, 0.002% bromophenol blue) and left stand at room temperature for 1 hour. Then, the reaction mixture was loaded on a spin column (0.45 μm, Millipore) to remove the insoluble solids and a sample buffer for SDS polyacrylamide gel electrophoresis (25 mM, Tris-HCl pH 6.8, 2.5% 2-mercaptoethanol, 2% sodium dodecylsulfate, 5% sucrose, 0.002% bromophenol blue as final concentrations) was added, and 10 μl of each sample was subjected to electrophoresis. […] J. Physiol., 274, […]-[…] (1998)), which specifically recognize the phosphorylated myosin regulatory light chain, and donkey anti-mouse IgG (Chemicon) conjugated with horseradish peroxidase (HRP-labeled). The band of the phosphorylated myosin regulatory light chain was detected on a film by using ECL Plus Kit (Amersham Pharmacia Biotech). This band was subjected to quantification using a densitometer. By using this value, the inhibitory ratio (%) for phosphorylation of the myosin regulatory light chain was calculated by using the following equation.

In assay [3] the test system is thoracic aorta. Nature of the assay: Vasoconstriction inhibitory action on aorta rings constricted with phenylephrine (Test Example 2). Also on record: species or system Rats (Wistar, 11-week old). The following applies: result in words; aorta constricted with phenylephrine (1 µM). An excerpt: Rats (Wistar, 11-week old) were bleeded to death and laparotomized to take out the thoracic aorta.

Assay [4] relates to Neutrophils. Nature of the assay: Neutrophil migration inhibitory action, Boyden Chamber, FMLP (Test Example 5). In kind it is cell-based, human. Particulars: Homo sapiens, Neutrophil, 0.5 h, FMLP (1 µM), migration at 37°C for 30 minutes; read-out: Neutrophil migration inhibition IC50. The protocol:
Neutrophils were isolated from 50 to 100 ml of peripheral blood collected from healthy donors by the method described in Test Example 1 to obtain a cell suspension (8 x 10^6/ml). Subsequently, solutions of a test compound at various concentrations were introduced into wells of a 96-well plate in a volume of 125 µl per well, the cell suspension of an equivalent volume was added to it and the plate was preincubated at room temperature for 5 minutes. During the preincubation, FMLP (1 µM, Sigma) solution was added to the lower chamber to set Boyden Chamber, the preincubated cell suspension was added to the upper chamber in a volume of 200 µl per well, and the cells were allowed to migrate at 37°C under 5% carbon dioxide for 30 minutes. The filter after the migration was collected, and the non-migrated cells adhered to the surface that faced the upper chamber were carefully wiped off. Then, the migrated cells on the back surface were stained with DifQuick dye solution (International Reagents), washed with water and dried, and then absorbance was measured at 595 nm. The inhibition ratio against migration (%) of a test compound was calculated by using the following equation: Migration inhibition ratio (%) = (1 -Absorbance of the group with addition of test compound /Absorbance of the group without addition of test compound) x 100 [formula]

Assay [5] has as its system Japanese white rabbit. Nature of the assay: Intraocular pressure reducing action (Test Example 4). Particulars: for intraocular pressure reducing activity: result in words. In kind it is in vivo. The protocol:
A Japanese white rabbit having a body weight of about 2 kg was placed in a positioner and naturalized for one week before the experiment. An ophthalmologic local […] (Benoxil) was administered to the left eye, and then intraocular pressure was measured by using a tonometer (Classic 30, Solan). The initial value of the intraocular pressure was measured, then 50 μl of a test compound (1% aqueous solution) was dropped to the left eye, and after 2 hours, the intraocular pressure was measured. The intraocular pressure reducing action of the test compounds is shown in Table 7 mentioned below as ratios (%) of reduction of intraocular pressure based on the initial value of the intraocular pressure.

[6] abbreviates: Homo sapiens, Neutrophil, 5 min.

As for `Cl.Clc1cncc2cccc(NC3CCNCC3)c12` [Example 118, 4-(4-Chloro-5-isoquinolyl)aminopiperidine hydrochloride], in assay [1], the “constriction of respiratory tract (airway resistance value)” value (from here on “constriction of respiratory tract”) is “significantly improved the constriction of respiratory tract”. Further, the values for the IC50 in assay [2] (setting [6]) and in assay [2] (hydrochloride) were not above 40 µM and not above 20 µM, respectively.
As for `C=Cc1cncc2cccc(O[C@H]3CC[C@H](N)CC3)c12.Cl` [Example 136, Trans-4-[(4-vinyl-5-isoquinolyl)oxy]cyclohexylamine hydrochloride], the vasoconstriction inhibitory action result in assay [3] was “significant vasoconstriction inhibitory action”. Also, the IC50 in assay [4] is not above 40 µM; in assay [2] (setting [6]), not above 40 µM; in assay [2] (hydrochloride), not above 20 µM. Further, the “intraocular pressure reducing activity” value in assay [5] was “significant intraocular pressure reducing activity”.
`Cl.OCCCN1CCC(Nc2cccc3cnccc23)CC1` [Example 145, 1-(3-Hydroxypropyl)-4-(5-isoquinolyl)aminopiperidine hydrochloride]: the IC50 in assay [4] is not above 40 µM; in assay [2] (setting [6]) it was not above 40 µM; in assay [2] (hydrochloride), not above 20 µM. For the same compound, the “intraocular pressure reducing activity” value in assay [5] is listed as “significant intraocular pressure reducing activity”.
Consider `Cl.OCCN1CCC(Nc2cccc3cnccc23)CC1` [Example 144, 1-(2-Hydroxyethyl)-4-(5-isoquinolyl)aminopiperidine hydrochloride], for which, in assay [1], the “constriction of respiratory tract” value is given as “significantly improved the constriction of respiratory tract”. For the same compound, the “intraocular pressure reducing activity” value in assay [5] is recorded as “significant intraocular pressure reducing activity”. The IC50 in assay [2] (setting [6]) is not above 40 µM.
Consider `Cl.Oc1nccc2c(NC3CCNCC3)cccc12` [Example 115, 4-(1-Hydroxy-5-isoquinolyl)aminopiperidine hydrochloride], for which, in assay [5], the “intraocular pressure reducing activity” value was “significant intraocular pressure reducing activity”.
Turning to `Cc1cncc2cccc(OC3CCNCC3)c12.Cl` [Example 139, 4-[(4-Methyl-5-isoquinolyl)oxy]piperidine hydrochloride], in assay [3], the vasoconstriction inhibitory action result was “significant vasoconstriction inhibitory action”. For the same compound, the “intraocular pressure reducing activity” value in assay [5] is recorded as “significant intraocular pressure reducing activity”. Further, the IC50 is not above 40 µM in assay [2] (setting [6]) and not above 20 µM in assay [2] (hydrochloride).
In the case of `CCc1cncc2cccc(NC3CCNCC3)c12.Cl` [Example 113, 4-(4-Ethyl-5-isoquinolyl)aminopiperidine hydrochloride], the vasoconstriction inhibitory action result in assay [3] is “significant vasoconstriction inhibitory action”. Besides, the values for the IC50 in assay [4], in assay [2] (setting [6]) and in assay [2] (hydrochloride) were not above 40 µM, not above 40 µM and not above 20 µM, respectively. Further, in assay [5], the “intraocular pressure reducing activity” value was “significant intraocular pressure reducing activity”.
With `Cl.N[C@H]1CC[C@H](Oc2cccc3cnccc23)CC1` [Example 135, Trans-4-[(5-isoquinolyl)oxy]cyclohexylamine hydrochloride], in assay [5], the “intraocular pressure reducing activity” value was “significant intraocular pressure reducing activity”. In addition, the IC50 is not above 40 µM in assay [2] (setting [6]) and not above 20 µM in assay [2] (hydrochloride).
`Cl.Nc1nccc2c(OCC3CCCNC3)cccc12` (centres unmarked) [Example 11, 3-[(1-Amino-5-isoquinolyl)oxy]methylpiperidine hydrochloride]: the “constriction of respiratory tract” value in assay [1] is given as “significantly improved the constriction of respiratory tract”. In addition, the IC50 in assay [4] was 1 to 10 µM; in assay [2] (setting [6]) it was 1 to 20 µM.
For `Brc1cncc2cccc(NC3CCNCC3)c12` [Example 103, 4-(4-Bromo-5-isoquinolyl)aminopiperidine hydrochloride], the figures for the IC50 in assay [4], in assay [2] (setting [6]) and in assay [2] (hydrochloride) were 1 to 10 µM, not above 40 µM and not above 20 µM, respectively. The inhibition in vivo at 1 % in assay [5] (Oryctolagus cuniculus, topical, 50 µl of test compound (1% aqueous solution) dropped to the left eye, after 2 hours, read-out: Intraocular pressure reducing action (reduction ratio) (%)) worked out at 31.3%.
`Cl.NC1CCC(Nc2cccc3cncc(Br)c23)CC1` (centres unmarked) [Example 107, N-(4-Bromo-5-isoquinolyl)-1,4-cyclohexanediamine hydrochloride]: the “intraocular pressure reducing activity” value in assay [5] is on record as “significant intraocular pressure reducing activity”. Besides, the IC50 in assay [2] (setting [6]) was not above 40 µM; in assay [2] (hydrochloride), not above 20 µM.
On to `Cc1cncc2cccc(N[C@H]3CC[C@H](N)CC3)c12.Cl` [Example 121, Trans-N-(4-methyl-5-isoquinolyl)-1,4-cyclohexanediamine hydrochloride], for which, in assay [3], the vasoconstriction inhibitory action result is “significant vasoconstriction inhibitory action”. The “constriction of respiratory tract” value in assay [1] is given as “significantly improved the constriction of respiratory tract”. Besides, the figures for the IC50 in assay [4], in assay [2] (setting [6]) and in assay [2] (hydrochloride) were 1 to 10 µM, not above 40 µM and not above 20 µM, respectively.
Regarding `CS(=O)(=O)c1ccc(CCCN(CCCN)S(=O)(=O)c2cccc3cnccc23)cc1.Cl` [Example 124, N-[(5-Isoquinolyl)sulfonyl]-N-[3-(4-methanesulfonyl)phenylpropyl]-1,3-propylenediamine hydrochloride], the “Intraocular pressure reducing action (reduction ratio) (%)” value in assay [5] (50 µl of test compound (1% aqueous solution) dropped to the left eye, after 2 hours) came out at 12.5%. Also, in assay [2] (hydrochloride), the IC50 was not above 20 µM.
On to `Cl.N#Cc1cncc2cccc(O[C@H]3CC[C@H](N)CC3)c12` [Example 134, Trans-4-[(4-cyano-5-isoquinolyl)oxy]cyclohexylamine hydrochloride], for which, in assay [3], the vasoconstriction inhibitory action entry is “significant vasoconstriction inhibitory action”. In addition, in assay [5], the “intraocular pressure reducing activity” value is reported as “significant intraocular pressure reducing activity”. Also, the figures for the IC50 in assay [2] (setting [6]) and in assay [2] (hydrochloride) were not above 40 µM and not above 20 µM, respectively.
In the same order, the values of `Cc1cncc2cccc(N[C@H]3CC[C@@H](N)CC3)c12.Cl` [Example 120, Cis-N-(4-methyl-5-isoquinolyl)-1,4-cyclohexanediamine hydrochloride] are “significant vasoconstriction inhibitory action”, “significant intraocular pressure reducing activity”, not above 40 µM and not above 20 µM.
